Source: patent US12404262B2 (priority 2021, dated 2025)

Details: 1.0% DMSO, 24-hour incubation at ambient temperature, maximum theoretical 100 μM; for pH 2 solubility: 0.1N HCl, first value of the cell; for pH 7 solubility: 1×PBS buffer (pH 7.4), second value of the cell

Compound | pH 2 solubility | pH 7 solubility
CC(C)(COP(=O)(O)O)C(=O)OCN(c1nn(CC(F)(F)F)c2c(-c3ccc(C#CC(C)(C)S(C)(=O)=O)nc3[C@H](Cc3cc(F)cc(F)c3)NC(=O)Cn3nc(C(F)(F)F)c4c3C(F)(F)[C@@H]3C[C@H]43)ccc(Cl)c12)S(C)(=O)=O [Compound 25, (N-(4-chloro-7-(2-((S)-1-(2-((3bS,4aR)-5,5-difluoro-3-(trifluoromethyl)-3b,4,4a,5-tetrahydro-1H-cyclopropa[3,4]cyclopenta[1,2-c]pyrazol-1-yl)acetamido)-2-(3,5-difluorophenyl)ethyl)-6-(3-methyl-3-(methylsulfonyl)but-1-yn-1-yl)pyridin-3-yl)-1-(2,2,2-trifluoroethyl)-1H-indazol-3-yl)methylsulfonamido)methyl 2,2-dimethyl-3-(phosphonooxy)propanoate] | 1 μM | 73 μM
CC(C)(C#Cc1ccc(-c2ccc(Cl)c3c(N(C(=O)OCCCN)S(C)(=O)=O)nn(CC(F)(F)F)c23)c([C@H](Cc2cc(F)cc(F)c2)NC(=O)Cn2nc(C(F)(F)F)c3c2C(F)(F)[C@@H]2C[C@H]32)n1)S(C)(=O)=O [Compound 129, 3-aminopropyl (4-chloro-7-(2-((S)-1-(2-((3bS,4aR)-5,5-difluoro-3-(trifluoromethyl)-3b,4,4a,5-tetrahydro-1H-cyclopropa[3,4]cyclopenta[1,2-c]pyrazol-1-yl)acetamido)-2-(3,5-difluorophenyl)ethyl)-6-(3-methyl-3-(methylsulfonyl)but-1-yn-1-yl)pyridin-3-yl)-1-(2,2,2-trifluoroethyl)-1H-indazol-3-yl)(methylsulfonyl)carbamate] | 54 μM | 7 μM
C[C@@H](O)CN(C)C(=O)N(c1nn(CC(F)(F)F)c2c(-c3ccc(C#CC(C)(C)S(C)(=O)=O)nc3[C@H](Cc3cc(F)cc(F)c3)NC(=O)Cn3nc(C(F)(F)F)c4c3C(F)(F)[C@@H]3C[C@H]43)ccc(Cl)c12)S(C)(=O)=O [Compound 48, N—((S)-1-(3-(4-chloro-3-(N—(((R)-2-hydroxypropyl)(methyl)carbamoyl)methylsulfonamido)-1-(2,2,2-trifluoroethyl)-1H-indazol-7-yl)-6-(3-methyl-3-(methylsulfonyl)but-1-yn-1-yl)pyridin-2-yl)-2-(3,5-difluorophenyl)ethyl)-2-((3bS,4aR)-5,5-difluoro-3-(trifluoromethyl)-3b,4,4a,5-tetrahydro-1H-cyclopropa[3,4]cyclopenta[1,2-c]pyrazol-1-yl)acetamide] | 1/1 μM | 1/1 μM
C[C@H](O)CNC(=O)N(c1nn(CC(F)(F)F)c2c(-c3ccc(C#CC(C)(C)S(C)(=O)=O)nc3[C@H](Cc3cc(F)cc(F)c3)NC(=O)Cn3nc(C(F)(F)F)c4c3C(F)(F)[C@@H]3C[C@H]43)ccc(Cl)c12)S(C)(=O)=O [Compound 34, N—((S)-1-(3-(4-chloro-3-(N—(((S)-2-hydroxypropyl)carbamoyl)methylsulfonamido)-1-(2,2,2-trifluoroethyl)-1H-indazol-7-yl)-6-(3-methyl-3-(methylsulfonyl)but-1-yn-1-yl)pyridin-2-yl)-2-(3,5-difluorophenyl)ethyl)-2-((3bS,4aR)-5,5-difluoro-3-(trifluoromethyl)-3b,4,4a,5-tetrahydro-1H-cyclopropa[3,4]cyclopenta[1,2-c]pyrazol-1-yl)acetamide] | 1 μM | 4 μM
CC(C)(C#Cc1ccc(-c2ccc(Cl)c3c(N(CCOP(=O)(O)O)S(C)(=O)=O)nn(CC(F)(F)F)c23)c([C@H](Cc2cc(F)cc(F)c2)NC(=O)Cn2nc(C(F)(F)F)c3c2C(F)(F)[C@@H]2C[C@H]32)n1)S(C)(=O)=O [Compound 19, 2-(N-(4-chloro-7-(2-((S)-1-(2-((3bS,4aR)-5,5-difluoro-3-(trifluoromethyl)-3b,4,4a,5-tetrahydro-1H-cyclopropa[3,4]cyclopenta[1,2-c]pyrazol-1-yl)acetamido)-2-(3,5-difluorophenyl)ethyl)-6-(3-methyl-3-(methylsulfonyl)but-1-yn-1-yl)pyridin-3-yl)-1-(2,2,2-trifluoroethyl)-1H-indazol-3-yl)methylsulfonamido)ethyl dihydrogen phosphate] | 1 μM | 100 μM
COC(=O)C(=O)N(c1nn(CC(F)(F)F)c2c(-c3ccc(C#CC(C)(C)S(C)(=O)=O)nc3[C@H](Cc3cc(F)cc(F)c3)NC(=O)Cn3nc(C(F)(F)F)c4c3C(F)(F)[C@@H]3C[C@H]43)ccc(Cl)c12)S(C)(=O)=O [Compound 15, methyl 2-(N-(4-chloro-7-(2-((S)-1-(2-((3bS,4aR)-5,5-difluoro-3-(trifluoromethyl)-3b,4,4a,5-tetrahydro-1H-cyclopropa[3,4]cyclopenta[1,2-c]pyrazol-1-yl)acetamido)-2-(3,5-difluorophenyl)ethyl)-6-(3-methyl-3-(methylsulfonyl)but-1-yn-1-yl)pyridin-3-yl)-1-(2,2,2-trifluoroethyl)-1H-indazol-3-yl)methylsulfonamido)-2-oxoacetate] | 1/1 μM | 1/1 μM
CN(CCCN)C(=O)N(c1nn(CC(F)(F)F)c2c(-c3ccc(C#CC(C)(C)S(C)(=O)=O)nc3[C@H](Cc3cc(F)cc(F)c3)NC(=O)Cn3nc(C(F)(F)F)c4c3C(F)(F)[C@@H]3C[C@H]43)ccc(Cl)c12)S(C)(=O)=O [Compound 79, N—((S)-1-(3-(3-(N-((3-aminopropyl)(methyl)carbamoyl)methylsulfonamido)-4-chloro-1-(2,2,2-trifluoroethyl)-1H-indazol-7-yl)-6-(3-methyl-3-(methylsulfonyl)but-1-yn-1-yl)pyridin-2-yl)-2-(3,5-difluorophenyl)ethyl)-2-((3bS,4aR)-5,5-difluoro-3-(trifluoromethyl)-3b,4,4a,5-tetrahydro-1H-cyclopropa[3,4]cyclopenta[1,2-c]pyrazol-1-yl)acetamide] | 59 μM | 14 μM
COC(=O)N(c1nn(CC(F)(F)F)c2c(-c3ccc(C#CC(C)(C)S(C)(=O)=O)nc3[C@H](Cc3cc(F)cc(F)c3)NC(=O)Cn3nc(C(F)(F)F)c4c3C(F)(F)[C@@H]3C[C@H]43)ccc(Cl)c12)S(C)(=O)=O [Compound 89, methyl (4-chloro-7-(2-((S)-1-(2-((3bS,4aR)-5,5-difluoro-3-(trifluoromethyl)-3b,4,4a,5-tetrahydro-1H-cyclopropa[3,4]cyclopenta[1,2-c]pyrazol-1-yl)acetamido)-2-(3,5-difluorophenyl)ethyl)-6-(3-methyl-3-(methylsulfonyl)but-1-yn-1-yl)pyridin-3-yl)-1-(2,2,2-trifluoroethyl)-1H-indazol-3-yl)(methylsulfonyl)carbamate] | 3/3 μM | 3/3 μM
CC(C)(C#Cc1ccc(-c2ccc(Cl)c3c(N(C(=O)NCCNC(=O)C(=O)O)S(C)(=O)=O)nn(CC(F)(F)F)c23)c([C@H](Cc2cc(F)cc(F)c2)NC(=O)Cn2nc(C(F)(F)F)c3c2C(F)(F)[C@@H]2C[C@H]32)n1)S(C)(=O)=O [Compound 77, 2-((2-(3-(4-chloro-7-(2-((S)-1-(2-((3bS,4aR)-5,5-difluoro-3-(trifluoromethyl)-3b,4,4a,5-tetrahydro-1H-cyclopropa[3,4]cyclopenta[1,2-c]pyrazol-1-yl)acetamido)-2-(3,5-difluorophenyl)ethyl)-6-(3-methyl-3-(methylsulfonyl)but-1-yn-1-yl)pyridin-3-yl)-1-(2,2,2-trifluoroethyl)-1H-indazol-3-yl)-3-(methylsulfonyl)ureido)ethyl)amino)-2-oxoacetic acid] | 21 μM | 1 μM
CC(C)(C#Cc1ccc(-c2ccc(Cl)c3c(N(C(=O)O[C@H]4C[C@H](NC(=N)N)C4)S(C)(=O)=O)nn(CC(F)(F)F)c23)c([C@H](Cc2cc(F)cc(F)c2)NC(=O)Cn2nc(C(F)(F)F)c3c2C(F)(F)[C@@H]2C[C@H]32)n1)S(C)(=O)=O [Compound 128, trans-3-guanidinocyclobutyl (4-chloro-7-(2-((S)-1-(2-((3bS,4aR)-5,5-difluoro-3-(trifluoromethyl)-3b,4,4a,5-tetrahydro-1H-cyclopropa[3,4]cyclopenta[1,2-c]pyrazol-1-yl)acetamido)-2-(3,5-difluorophenyl)ethyl)-6-(3-methyl-3-(methylsulfonyl)but-1-yn-1-yl)pyridin-3-yl)-1-(2,2,2-trifluoroethyl)-1H-indazol-3-yl)(methylsulfonyl)carbamate] | 5 μM | 1 μM
C[C@@H](O)[C@H](NC(=O)N(c1nn(CC(F)(F)F)c2c(-c3ccc(C#CC(C)(C)S(C)(=O)=O)nc3[C@H](Cc3cc(F)cc(F)c3)NC(=O)Cn3nc(C(F)(F)F)c4c3C(F)(F)[C@@H]3C[C@H]43)ccc(Cl)c12)S(C)(=O)=O)C(=O)O [Compound 61, ((4-chloro-7-(2-((S)-1-(2-((3bS,4aR)-5,5-difluoro-3-(trifluoromethyl)-3b,4,4a,5-tetrahydro-1H-cyclopropa[3,4]cyclopenta[1,2-c]pyrazol-1-yl)acetamido)-2-(3,5-difluorophenyl)ethyl)-6-(3-methyl-3-(methylsulfonyl)but-1-yn-1-yl)pyridin-3-yl)-1-(2,2,2-trifluoroethyl)-1H-indazol-3-yl)(methylsulfonyl)carbamoyl)-L-threonine] | 1 μM | 9 μM
